According to article doi:10.64898/2025.12.01.691523v1 (biorxiv, 2025):

Assays:
[1] = molecular target: bacterioferritin (Bftn); conditions: buffer not given in main text
[2] = molecular target: AcFtnHCH (Anopheles culicifacies, UniProt A0A182M0V3); experiment: biochemical
Sequence of AcFtnHCH (A0A182M0V3 21-216): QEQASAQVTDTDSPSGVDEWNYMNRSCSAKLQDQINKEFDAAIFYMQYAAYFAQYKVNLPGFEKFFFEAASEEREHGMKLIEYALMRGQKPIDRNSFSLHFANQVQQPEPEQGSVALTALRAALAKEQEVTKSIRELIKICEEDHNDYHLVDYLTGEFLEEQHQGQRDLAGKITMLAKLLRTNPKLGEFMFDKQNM

Work on `C=CC1=C(C)C2=Cc3c(C=C)c(C)c4[n]3[Fe]([Cl])[n]3c(c(C)c(CCC(=O)O)c3=CC3=NC(=C4)C(C)=C3CCC(=O)O)=CC1=N2` [hemin] yielded a Kd [1] of 136 ± 21.9 nM and a Kd [2] of 67.8 ± 6.5 nM.
